For data set [1] the following is noted: well known in the art; cited from earlier work.
Data set [2] has as its system human colon cancer Colo-205 cells. As to the kind of experiment: MTT assay of cell growth, Colo-205. Type of data set: cell-based. On the procedure: (§1) Two human colon cancer cell lines, Colo-205 (ATCC accession No. CCL-222) and HT-29 (ATCC accession No. HTB-38), were used in this study. Cells were treated with 0.2, 0.76, 1.52, 7.62, 15.24, 22.87, 30.49, 38.11, 45.73 or 53.35 μM 10-HCPT or CPT-11 for 1-3 days, and the relative number of the viable cells was determined by MTT assay as described below.
(§2) Cells were seeded in a 24-well cell culture cluster (Costar, Cambridge, Mass.) at a density of 1×10^6 cells per mL and cultured overnight prior to drug treatment. After 10-HCPT or CPT-11 treatment for 3 days, the medium was discarded and replaced with an equal volume (0.5 mL) of fresh medium containing 0.456 mg/mL 3-[4,5-dimethylthiazol-2-yl]-2,5-diphenyl-tetrazolium bromide (MTT; Sigma Chemical Company) and incubated for 2 hours at 37° C. in the dark. The medium was discarded, and cells were then combined with […] dimethyl sulfoxide (Sigma Chemical Company) to dissolve the formazan produced. Cell viability was determined according to the calorimetric comparison by reading optical density (OD) values from a microplate reader (Spectra Max 250; Spectra Diode Laboratories, CA) at an absorption wavelength of 570 nm.

The subject of data set [3] is human colon cancer HT-29 cells. As to the kind of experiment: MTT assay of cell growth, HT-29. Type of data set: cell-based. Conditions: HT-29, days 1-3, MTT. On the procedure:
as §1, §2

In the case of `CC[C@@]1(O)C(=O)OCc2c1cc1n(c2=O)Cc2cc3ccccc3nc2-1` [CPT, Camptothecin], in data set [1], the water-solubility result is given as “water-insoluble”.

For the compound `CC[C@@]1(O)C(=O)OCc2c1cc1n(c2=O)Cc2cc3c(CN(C)C)c(O)ccc3nc2-1` [topotecan], the water-solubility result in data set [1] is “better water-solubility than CPT”.

On to irinotecan [CPT-11], for which the “concentration at which significant growth inhibition was observed” value in data set [2] (Colo-205, day 2 and day 3, MTT, vs vehicle controls) worked out at 22.87 µM. The “concentration at which complete growth inhibition was observed” value was 38.11 µM in data set [2] (Colo-205, days 1-3, MTT) and 45.73 µM in data set [3]. The water-solubility result in data set [1] was “better water-solubility than CPT”.

Source of the values: patent US20080039485A1, “LOW-DOSE-LONG-TERM PHARMACEUTICAL COMPOSITION COMPRISING CAMPTOTHECIN DERIVATIVES FOR THE TREATMENT OF CANCERS” (TARGETGEN BIOTECHNOLOGY CO., LTD., priority 2006, published 2008).
